What was measured:
Neurospora crassa = assay: Avicel hydrolysis assay with shake flask culture supernatants; assay type: cell-based
Description: Cultures were grown in 1% sucrose for 24 hours followed by the addition of 2% sucrose or 0.2% cellobiose. Supernatant was harvested after 24 (WT, Δ3βG and Δ3βGΔcre) or 72 hours (Δ3βG). The WT Avicel® culture was grown for 5 days on 2% Avicel®, Δ3βG was grown in 1% sucrose for 24 hours followed by 48 hours in 1% Avicel® and Δ3βGΔcre was grown in 1% sucrose for 24 hours followed by 24 hours in 1% Avicel®.
Total Avicelase activity was conducted in 250 mL media bottles incubated at 50° C. on a orbital shaker at 200 rpm. Each bottle contained 1% cellulose (Avicel®) and 50 mM (pH 5.0) sodium acetate in a working volume of 50 mL. Tetracycline (10 μg/mL) was added to prevent microbial contamination. Bioreactor culture broth samples were buffer exchanged using a 10 kDa MWCO centrifugal filter to remove any soluble sugars prior to initiating hydrolysis experiments. After pre-incubating the hydrolysis mixture to 50° C., enzyme was added (1 mL filtered culture broth). Samples were taken every 4 hours for the first 12 hours and then every 12 hours thereafter for a total of 48 hours. Hydrolysis experiments were performed in triplicate.
Sucrose, fructose, glucose and cellobiose were measured on a DIONEX ICS-3000 HPLC (Dionex Corp., Sunnyvale, Calif.) using a CarboPac PA20 Analytical Column (3×150 mm) and a CarboPac PA20 guard column (3×30 mm) at 30° C. Following injection of 25 μl of diluted samples, elution was performed with 100 mM KOH (isocratic) at 0.4 ml/min. Sugars were detected using PAD, Four-Potential Carbohydrate Waveform and Peaks were analyzed using the Chromeleon software package.

[1] = test system: endoglucanase 2 (eg-2 / gh5-1, NCU00762); assay: Quantitative RT-PCR of eg-2/gh5-1 expression after 4 h induction with a carbon source; assay type: cell-based, Neurospora crassa
Description: Strains were inoculated at an OD595 equal to 0.05 in 50 ml Vogel's salts with 2% (wt/vol) sucrose in a 250 ml Erlenmeyer flask and grown under constant light at 200 rpm for 16 hours. The biomass was then spun at 4000 rpm for 10 minutes and washed in Vogel's twice to remove any excess sucrose. The biomass was then added to a new 50 ml culture with 2% (wt/vol) sucrose, cellobiose (Sigma) or Avicel® PH 101 (Avicel®). Cultures were induced for 4 hours under constant light at 200 rpm. The culture biomass was then harvested by filtration over a Whatman glass microfiber filter (GF/F) on a Buchner funnel and washed with 50 ml Vogel's, biomass was flash frozen in liquid Nitrogen and stored at −80° C.
Total RNA from frozen samples was isolated using Zirconia/Silica beads (0.2 g, 0.5 mm diameter; Biospec) and a Mini-Beadbeater-96 (Biospec) with 1 mL TRIzol reagent (Invitrogen) according to manufacturer's instructions. Total RNA was further purified by digestion with TURBO DNA-free (Ambion) and an RNeasy kit (Qiagen). RNA integrity was checked by Nanodrop and agarose gel electrophoresis.
Quantitative RT-PCR was performed using the EXPRESS One-Step SYBR GreenER Kit (Invitrogen) and the StepOnePlus Real-Time PCR System (Applied Biosystems). Reactions were performed in triplicate with a total reaction volume of 10 ul including 300 nM each forward and reverse primers and 75 ng template RNA. Data Analysis was performed by the StepOne Software (Applied Biosystems) using Relative Quantitation/Comparative CT (ΔΔCT). Data was normalized to the endogenous control actin with expression on sucrose as the reference sample. Error bars indicate a 95% confidence interval. The RT-PCR primers were used as described in (Tian et al., 2009).
Conidia from strains were inoculated at an OD595 equal to 0.05 in 50 ml Vogel's salts (45) with 2% w/v sucrose in a 250 ml Erlenmeyer flask and grown under constant light at 200 rpm for 16 hours. Biomass was then spun at 4200 rpm for 10 minutes and washed in Vogel's salts twice to remove any excess sucrose. Biomass was then added to a new flask containing 50 ml Vogel's salts supplemented with 1% w/v sucrose, 0.2% w/v cellobiose (Sigma) or 1% w/v Avicel® PH 101 (Sigma). Cultures were induced for 4 hrs under constant light at 200 rpm. The culture biomass was then harvested by filtration over a Whatman glass microfiber filter (GF/F) on a Buchner funnel and washed with 50 ml Vogel's salts. […] Three independent biological duplicates (flasks) were evaluated for each time point. […]
Quantitative RT-PCR was performed using the EXPRESS One-Step SYBR GreenER Kit (Invitrogen) and the StepOnePlus Real-Time PCR System (Applied Biosystems). […] Data Analysis was performed by the StepOne Software (Applied Biosystems) using the Relative Quantitation/Comparative CT (ΔΔCT) setting. […]

cbh-1 = assay: mRNA sequencing (RNA-Seq), transcript abundance of cbh-1; assay type: cell-based, Neurospora crassa; conditions: Δ3βG; 4 hours after transfer to 0.2% cellobiose
Description: (§1) Conidia from strains were inoculated at an OD595 equal to 0.05 in 50 ml Vogel's salts (45) with 2% w/v sucrose in a 250 ml Erlenmeyer flask and grown under constant light at 200 rpm for 16 hours. Biomass was then spun at 4200 rpm for 10 minutes and washed in Vogel's salts twice to remove any excess sucrose. Biomass was then added to a new flask containing 50 ml Vogel's salts supplemented with 1% w/v sucrose, 0.2% w/v cellobiose (Sigma) or 1% w/v Avicel® PH 101 (Sigma). Cultures were induced for 4 hrs under constant light at 200 rpm. The culture biomass was then harvested by filtration over a Whatman glass microfiber filter (GF/F) on a Buchner funnel and washed with 50 ml Vogel's salts. The biomass was flash frozen in liquid nitrogen and stored at −80° C. Three independent biological duplicates (flasks) were evaluated for each time point.
Total RNA from frozen samples was isolated using Zirconia/Silica beads (0.5 mm diameter; Biospec) and a Mini-Beadbeater-96 (Biospec) with 1 mL TRIzol reagent (Invitrogen) according to the manufacturer's instructions. […]
mRNA sequencing was performed using an Illumina kit (RS-100-0801) with isolated RNA. The final cDNA library was quantified by an Agilent bioanalyzer 2000 and sequenced using an Illumina Genome Analyzer-II using standard Illumina operating procedures. […]

[2] = test system: cellulase genes (cbh-1, gh5-1, gh6-2); assay: Quantitative RT-PCR, cellulase gene expression stated for the genes together; assay type: cell-based, Neurospora crassa
Description: as §1, with “Biomass was then added to a new flask containing 50 ml Vogel's salts supplemented with 1% w/v sucrose, 0.2% w/v cellobiose (Sigma) or 1% w/v Avicel® PH 101 (Sigma).” left out
Total RNA from frozen samples was isolated using Zirconia/Silica beads (0.5 mm diameter; Biospec) and a Mini-Beadbeater-96 (Biospec) with 1 mL TRIzol reagent (Invitrogen) according to the manufacturer's instructions. The total RNA was further purified by digestion with TURBO DNA-free (Ambion) and an RNeasy kit (Qiagen). RNA concentration and integrity was checked by Nanodrop and agarose gel electrophoresis.
Quantitative RT-PCR was performed using the EXPRESS One-Step SYBR GreenER Kit (Invitrogen) and the StepOnePlus Real-Time PCR System (Applied Biosystems). Reactions were performed in triplicate with a total reaction volume of 10 μl including 300 nM each forward and reverse primers and 75 ng template RNA. Data Analysis was performed by the StepOne Software (Applied Biosystems) using the Relative Quantitation/Comparative CT (ΔΔCT) setting. Data was normalized to the endogenous control actin with expression on sucrose as the reference sample.

SMILES: O=C[C@H](O)[C@@H](O)[C@H](O[C@@H]1O[C@H](CO)[C@@H](O)[C@H](O)[C@H]1O)[C@H](O)CO [cellobiose]
- hydrolysis of crystalline cellulose by culture supernatant (Neurospora crassa; WT cultures grown on or induced with the substance): did not
- hydrolysis of crystalline cellulose by culture supernatant (Neurospora crassa; Δ3βG cultures grown on or induced with the substance): hydrolyzed crystalline cellulose
- hydrolysis of crystalline cellulose by culture supernatant (Neurospora crassa; Δ3βGΔcre cultures grown on or induced with the substance): hydrolyzed crystalline cellulose
- eg-2 relative expression compared to sucrose ([1]; WT strain, 2% carbon source, 4 h induction): no change
- eg-2 increase in relative expression over expression on sucrose ([1]; triple β-glucosidase mutant, 2% carbon source, 4 h induction): 2,200 fold
- increase in transcription of eg-2 above expression on sucrose in the same strain ([1]; Δcre-1 strain, 4 h induction (Example 1)): 80 fold
- induction of gh5-1 ([1]; Δcre-1 strain, shifted from sucrose to 0.2% cellobiose for 4 hrs): 500 fold
- FPKM for cbh-1 (cbh-1): 130,865 FPKM
- induction of cbh-1, gh6-2, or gh5-1 expression ([2]; individual β-glucosidase deletion strains (Δgh1-1, Δgh3-3 or Δgh3-4), 4 hr induction, 0.2%): did not show a significant induction
- induction of lignocellulolytic genes ([2]; wild-type N. crassa (WT) grown on the substance as sole carbon source): not induced
- cellulase gene induction ([2]; Δgh1-1Δgh3-3 double mutant, 4 hr induction, 0.2%): showed some cellulase gene induction

— patent publication US9822373B2, “Mutant cells for protein secretion and lignocellulose degradation” (The Regents of the University of California, priority 2011, dated 2017)
